Consider two compounds from patent publication US6207655A, “Bis-phosphonate confugates with alkylating moieties having antitumor activity” (Novuspharma S.p.A., priority 1997, dated 2001).

Structures are written as SMILES.

Data set [1] concerns human multiple myeloma HS-Sultan cells. Nature of the data set: experimental model of human multiple myeloma HS-Sultan, mean survival time. Type of data set: in vivo, human cells in SCID rats. Particulars: iv/iv, days +15, 18, 21; for TMS (MST = Mean Survival Time in days from the tumor inoculation): controls: MST 33-37; for Tox: HS-Sultan. On the procedure: (§1) The experiment is performed by inoculating intravenously (i.v.) the human multiple myeloma HS-Sultan cells in SCID rats (immunodeficient rats) at day 0, followed by treatment i.v. with a compound of the invention at days 15, 18 and 21.
The activity of the compounds of the invention was evaluated in relationship with the following parameters:
Mean Survival Time (MST) in comparison with the not treated rats (which have a mean survival time of 30 days after tumor inoculation);

The subject of data set [2] is murine breast carcinoma Walker 256/B. Description: antitumor activity in vivo against Walker 256/B implanted intratibia (TWI%). On the set-up: species or system murine tumor; male rats CD1. Particulars: it/iv, days 1, 4, 7; for TWI % (tumor weight inhibition %): measured day 14; for Tox: Walker 256/B. The source says: The compounds of the invention have been tested "in vivo" against the murine breast carcinoma Walker 256/B implanted intratibia (it). After inoculation into the bone marrow cavity of the tibia, this tumor grows inside the bone causing osteolytic lesions, paraneoplastic hypercalcaemia and by invading the surrounding tissues it forms a measurable tumor mass. It is therefore possible to determine both the antitumor activity on the extraosseous tumor and the anti-osteolytic effect (Cancer, 72(1), 91 (1993)).
The Walker 256/B tumor was provided by NCI Frederick Cancer Facility and was maintained in male rats CD1 by means of subcutaneous transplantation of tumor fragments of about 1 cm diameter every 10 days.
To perform the experiment, each rat was injected it with 2.5×10^6tumor cells; all the animals were anesthetized with a mixture of 10 mg/kg of Ketalar (Park-Davis) and 5 mg/kg of Rompun (Bayer). After implantation inside the tibia, the tumor grows causing osteolytic lesions associated with an increased activity of the osteoclasts. To obtain an injectable cell suspension, the tumor fragments were decomposed by means of enzymatic digestion with type IV collagenases (Sigma) at a concentration of 400 U/ml for 20 minutes at 37° C.
The compounds of the invention have been administered i.v. at days 1, 4 and 7 after the tumor transplantation. The extraosseous tumor mass has been measured at day 14 after tumor transplantation. The antitumor activity was determined as TWI% (tumor weight inhibition %) calculated according to the following formula:
TWI%=(100-TW meantreated animals /TW meancontrols)×100
wherein the TW for each animal is given by the formula: […]
in which a and b are respectively the maximum and minimum diameter of the tumor mass, expressed in mm.

In data set [3] the test system is human multiple myeloma HS-Sultan cells. Description: histopathological examination of tumor infiltration in the human multiple myeloma model. Type of data set: in vivo, human cells in SCID rats. On the set-up: key to tumor infiltration score: -: absence of infiltration; +: slight infiltration; ++: middle to high infiltration. Conditions: for tumor infiltration score: 38 days from the treatment; for effect on the tumor infiltration (in words): human multiple myeloma model. The protocol: as §1
evaluation of histological parameters (bone marrow invasion and degree of osteolytic lesions).

The subject of a further data set is multiple myeloma. Particulars: background statement; cited from earlier work.

For the compound `O=C(C=C(C(=O)O)C(P(=O)(O)O)P(=O)(O)O)NC(Cc1ccc(N(CCCl)CCCl)cc1)C(=O)O` (stereo not drawn) [compound (B)], the “TMS (MST = Mean Survival Time in days from the tumor inoculation)” value in data set [1] (60 mg/kg) worked out at 70 days. For the same compound, the Tox in data set [1] (60 mg/kg) is 1/6; in data set [2] (20 mg/kg), 0/8. Moreover, the “TWI % (tumor weight inhibition %)” value in data set [2] (20 mg/kg) is 89%. In addition, the tumor infiltration score entry is listed as “-” in data set [3] (Backbone (soft tissues), (B) oO mg/kg); “-” in data set [3] (Backbone, (B) oO mg/kg); “-” in data set [3] (Hind limbs (soft tissues), (B) oO mg/kg); “-” in data set [3] (Hind limbs, (B) oO mg/kg); “+” in data set [3] (Kidneys, (B) oO mg/kg); “-” in data set [3] (Sternum, (B) oO mg/kg). Besides, in data set [3], the “effect on the tumor infiltration (in words)” value is reported as “selective inhibitory effect on the tumor infiltration”.
For `N[C@@H](Cc1ccc(N(CCCl)CCCl)cc1)C(=O)O` [melphalan], the “activity against the multiple myeloma (in words)” value in the data set on multiple myeloma is listed as “exploits activity against the multiple myeloma”. Also, the “cure of the secondary bone tumor (in words)” value in the data set with multiple myeloma is reported as “not able to cure the secondary bone tumor”. Also, in data set [1] (6 mg/kg), the “TMS (MST = Mean Survival Time in days from the tumor inoculation)” value is listed as 59 days. Moreover, the Tox in data set [1] (6 mg/kg) is listed as 1/5; in data set [2] (2.8 mg/kg), 11/144. In addition, the “TWI % (tumor weight inhibition %)” value in data set [2] (2.8 mg/kg) was determined as 71%. The tumor infiltration score result in data set [3] (Backbone (soft tissues), melfalan 6 mg/kg) is on record as “-”; in data set [3] (Backbone, melfalan 6 mg/kg), “+”; in data set [3] (Hind limbs (soft tissues), melfalan 6 mg/kg), “-”; in data set [3] (Hind limbs, melfalan 6 mg/kg), “+”; in data set [3] (Kidneys, melfalan 6 mg/kg), “-”; in data set [3] (Sternum, melfalan 6 mg/kg) it was “+”. Further, in data set [3], the “effect on the tumor infiltration (in words)” value is “cannot be seen”.
